Paper PMC10377513, “Goldilocks Dilemma: LPS Works Both as the Initial Target and a Barrier for the Antimicrobial Action of Cationic AMPs on E. coli” (Biomolecules, 2023)
Values after ≈ are worked out from the molar mass of the structure shown. Residues, ends and D or L forms follow the SMILES beside them.

Key:
S. aureus ATCC 9144 = details: CLSI guidelines, MHBII; cited from earlier work
Protocol: (§1) Table 1 MIC and ζ potentials for the tested peptides against P. aeruginosa, S. aureus, and the three E. coli strains: ATCC 25922, LPS deficient—NR 698, and colistin-resistant CCUG 70662, which was tested after cultivation with (+) and without (−) 4 µg/mL of colistin, which caused a decrease of negative charge of the cell wall. MIC values for P. aeruginosa, S. aureus, and E. coli ATCC 25922 are rep | column: MIC (µg/mL) / S. aureus ATCC 9144

E. coli ATCC 25922 = details: CLSI guidelines, MHBII; cited from earlier work
Protocol: as §1, with “/ E. coli” for “/ S. aureus”, “ATCC 25922” for “ATCC 9144”

P. aeruginosa ATCC 27853 = details: CLSI guidelines, MHBII; cited from earlier work
Protocol: as §1, with “/ P. aeruginosa” for “/ S. aureus”, “ATCC 27853” for “ATCC 9144”

E. coli NR 698 = details: LPS deficient strain; CLSI guidelines, MHBII
Protocol: (§2) The bacterial strains tested were E. coli ATCC 25922, E. coli […], and E. coli NR-698. The MIC assays followed the CLSI guidelines. Overnight cultures and MIC assays were performed in MHBII (212322, Becton, Dickson and Company, Sparks, MD, USA). In addition, E. coli […] was tested after cultivation with 4 µg/mL of colistin to induce alternation in surface charge.
(§3) The antimicrobial activity of the five cyclic cationic AMPs was determined against S. aureus, P. aeruginosa, and three strains of E. coli: ATCC 25922, LPS colistin-resistant strain CCUG 70662, and LPS deficient strain NR 698 (Table 1). CCUG 70662 was cultivated in two conditions, both in the absence (−) and in the presence (+) of colistin (4 µg/mL). Resistance development can be monitored by measuring changes in the ζ-potential, reflecting the overall charge of the bacteria. […] In the NR 698 strain, translocation of LPS from the periplasmic space to the outer leaflet is hindered.

E. coli CCUG 70662 = test system: E. coli CCUG 70662
Protocol: as §2, §3

[1] = test system: E. coli ATCC 25922 live cells; experiment: Live cell NMR (1H signal attenuation on cell titration); type: binding; details: E. coli ATCC 25922 cells titrated into 1 mg/mL peptide, Tris buffer pH 7.4, 298 K; KD in estimated lipid concentration, Shortridge fit; read-out: KD from live cell NMR
Protocol: (§4) NMR spectra were acquired on a Bruker Avance III HD spectrometer operating at 600 MHz for ^1H, equipped with an inverse TCl cryo probe. All NMR spectra were acquired at 298 K using 5 mm tubes using standard pulse programs.
(§5) E. coli strains ATCC 25922, CCUG 70662, and NR 698 were grown until OD600 ≈ 0.6–0.8 in standard Lysogeny Broth at 37 °C from overnight colonies on agar plates. This allowed bacterial cultures to reach an exponential state of growth. CCUG 70662 was cultivated with and without 4 µg/mL of colistin in both agar and broth to allow for modification of the lipid A part of LPS [33]. After that, cells were carefully centrifuged by 6000× g for 10 min, the supernatant was discarded, and the cell pellet was resuspended in 10 mM Tris buffer with 100 mM NaCl and pH 7.4. The process was repeated two more times to wash out broth components and leftover colistin. […] The part of samples was diluted to OD = 1 in Tris buffer, and zeta potential was measured on Malvern Zetasizer Nano (Malvern Ins., Malvern, UK). […]
(§6) For the live cell NMR, the same E. coli strains as for the MIC testing (see above) were used. […] To measure the initial AMP:bacterial cell binding, we titrated an increasing number of cells into a known and fixed concentration of AMP and monitored the signal attenuation of the peptide (Figure 4A,B). […]

[2] = test system: E. coli NR 698 live cells; experiment: as above; type: binding; details: E. coli NR 698 cells titrated into 1 mg/mL peptide, Tris buffer pH 7.4, 298 K; KD in estimated lipid concentration, Shortridge fit; read-out: KD from live cell NMR
Protocol: as §4, §5, §6

[3] = test system: E. coli ATCC 25922 lysate; experiment: NMR line shape analysis with sonicated cell lysate; type: binding; details: ATCC 25922 lysate versus live cells
Protocol: as §4, §5, §6

[4] = SPR partitioning into immobilized liposomes; type: binding, E. coli; details: DMPC liposomes with 10% LPS versus DMPC and DMPC:PG
Protocol: The large unilamellar liposomes of DMPC and DMPC:PG (95:5) were prepared for the SPR experiment using standard methods. In brief, lipid mixtures were weighted from dry powder (Avanti, USA) and dissolved in 3:1 dichloromethane:methanol mixtures. The organic mixture was dried in a vacuum rotavapor to form a lipid film which was hydrated to 20 mM total concentration of lipids (for DMPC and DMPC:PG mixture) by adding 10 mM HEPES buffer pH 7.4 with 150 mM NaCl. For DMPC:LPS mixtures, dried LPS was dissolved in water and mixed with DMPC dissolved in dichloromethane. Isopropanol was added to the mixture until only one phase—dichloromethane:isopropanol:water was formed. Dry film was prepared and then hydrated using the same method as above to a concentration of 18 mM of DMPC and 10% (w/w) LPS in HEPES buffer. […]
The SPR experiments were performed at room temperature using the L1 chip and T200 Biacore instrument (GE Healthcare, Chicago, IL, USA). […] KD was obtained Using Equation (1) from a standard steady-state fit:(1) RU=RUMAX/1+KD/[P]+off, where RU is measured SPR response; RUMAX is RU response during saturation; [P] is peptide concentration; and off is offset of response. […]
SPR is emerging as the method of choice for measuring the partitioning of small compounds into lipid bilayers. […] From the estimated KD and the measured koff values, the association rate kon can be calculated (Equation (5)). […]

[5] = SPR, L1 chip, Biacore T200, room temperature, DMPC liposomes, 10 mM HEPES pH 7.4, 150 mM NaCl, steady-state fit; cited from earlier work
Text: Introducing 5% of a negatively charged component (DMPG) to the liposomes doubled the KP of all peptides except c(WKWKWK), where the increase was less substantial.

Compound | MIC S. aureus ATCC 9144 (S. aureus ATCC 9144) [µg/mL] | MIC E. coli ATCC 25922 (E. coli ATCC 25922) [µg/mL] | MIC P. aeruginosa ATCC 27853 (P. aeruginosa ATCC 27853) [µg/mL] | MIC E. coli NR 698 (E. coli NR 698) [µg/mL] | MIC E. coli CCUG 70662+ (E. coli CCUG 70662) [µg/mL] | MIC E. coli CCUG 70662− (E. coli CCUG 70662) [µg/mL] | Kd [1] [µM] | Kd [2] [µM] | Increase in KD after sonication (lysate versus live cell ATCC 25922) [3] | Increase in KP with DMPC:LPS compared to the DMPC and DMPC:PG constructs [4] | Partitioning constant KP [5]
NCCCC[C@@H]1NC(=O)[C@H](Cc2c[nH]c3ccccc23)NC(=O)[C@H](CCCCN)NC(=O)[C@H](Cc2c[nH]c3ccccc23)NC(=O)[C@H](CCCCN)NC(=O)[C@H](Cc2c[nH]c3ccccc23)NC1=O [c(WKWKWK)] (HELM PEPTIDE1{W.K.W.K.W.K}$PEPTIDE1,PEPTIDE1,1:R1-6:R2$$$V2.0) | 128 (≈ 136 µM) | 64 (≈ 67.9 µM) | >250 | 4 (≈ 4.24 µM) | 64 (≈ 67.9 µM) | 64 (≈ 67.9 µM) |  |  |  |  | 
N=C(N)NCCC[C@@H]1NC(=O)[C@H](Cc2c[nH]c3ccccc23)NC(=O)[C@H](CCCNC(=N)N)NC(=O)[C@H](Cc2c[nH]c3ccccc23)NC(=O)[C@H](CCCNC(=N)N)NC(=O)[C@H](Cc2c[nH]c3ccccc23)NC1=O [c(WRWRWR)] (HELM PEPTIDE1{W.R.W.R.W.R}$PEPTIDE1,PEPTIDE1,1:R1-6:R2$$$V2.0) | 32 (≈ 31.2 µM) | 32 (≈ 31.2 µM) | 64 (≈ 62.3 µM) | 2 (≈ 1.95 µM) | 32 (≈ 31.2 µM) | 16 (≈ 15.6 µM) | 50 to 200 | > 500 | two-fold |  | 
NCCCC[C@@H]1NC(=O)[C@H](CCCCN)NC(=O)[C@H](Cc2c[nH]c3ccccc23)NC(=O)[C@H](Cc2c[nH]c3ccccc23)NC(=O)[C@H](Cc2c[nH]c3ccccc23)NC(=O)[C@H](CCCCN)NC1=O [c(WWWKKK)] (HELM PEPTIDE1{W.W.W.K.K.K}$PEPTIDE1,PEPTIDE1,1:R1-6:R2$$$V2.0) | 32 (≈ 33.9 µM) | 8 (≈ 8.48 µM) | 32 (≈ 33.9 µM) | 2 (≈ 2.12 µM) | 4 (≈ 4.24 µM) | 4 (≈ 4.24 µM) |  |  |  |  | 
CC(C)C[C@@H]1NC(=O)[C@@H](CCCNC(=N)N)NC(=O)[C@H](CCCCN)NC(=O)[C@H](CC(N)=O)NC(=O)[C@@H](Cc2c[nH]c3ccccc23)NC(=O)[C@H](Cc2c[nH]c3ccccc23)NC1=O [c(LWwNKr)] (HELM PEPTIDE1{L.W.[dW].N.K.[dR]}$PEPTIDE1,PEPTIDE1,1:R1-6:R2$$$V2.0) | >250 | >250 | >250 | 32 (≈ 36.2 µM) | >250 | >250 |  |  |  | four-fold | 278
N=C(N)NCCC[C@@H]1NC(=O)[C@H](CCCNC(=N)N)NC(=O)[C@H](Cc2c[nH]c3ccccc23)NC(=O)[C@H](Cc2c[nH]c3ccccc23)NC(=O)[C@H](Cc2c[nH]c3ccccc23)NC(=O)[C@H](CCCNC(=N)N)NC1=O [c(WWWRRR)] (HELM PEPTIDE1{W.W.W.R.R.R}$PEPTIDE1,PEPTIDE1,1:R1-6:R2$$$V2.0) | 4 (≈ 3.89 µM) | 8 (≈ 7.79 µM) | 16 (≈ 15.6 µM) | 4 (≈ 3.89 µM) | 8 (≈ 7.79 µM) | 8 (≈ 7.79 µM) |  |  |  |  | 6649
